Results on 8 compounds are retold here after patent US10711000B2 (Fronthera U.S. Pharmaceuticals LLC, priority 2018, dated 2020).

By IC50 is commonly meant the concentration that gives 50% inhibition.

In the test the target is T1, Autotaxin (Homo sapiens, UniProt Q13822).
T1 construct: from tissue; host or cells: pooled human plasma
As to the kind of experiment: LPA formation in pooled human plasma (ex vivo autotaxin inhibition). To be noted: 2 hours incubation. Format: biochemical. Put shortly:
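Ex vivo: LPA 18:2 and 20:4 levels in compound-treated versus untreated pooled human plasma after 2 h incubation, measured by butanol extraction and negative-mode MRM LC/MS/MS against calibration standards. IC50 from non-linear fit of inhibition versus concentration.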

The mark [1] stands for this setting: LPA 18:2 by LC/MS/MS, read-out: LPA formation (18:2) (IC50).
The mark [2] stands for this setting: LPA 20:4 by LC/MS/MS, read-out: LPA formation (20:4) (IC50).

Read-outs that look alike come from different tables or passages of the source. Some results are limits rather than exact numbers.

Take `CCc1nn2ccc(N3CCC4(CC3)CN(C(=O)N3CC(O)C3)C4)cc2c1N(C)c1nc(-c2ccc(F)cc2)c(C#N)s1` [Example 12, 2-((2-ethyl-5-(2-(3-hydroxyazetidine-1-carbonyl)-2,7-diazaspiro[3.5]nonan-7-yl)pyrazolo[1,5-a]pyridin-3-yl)(methyl)amino)-4-(4-fluorophenyl)thiazole-5-carbonitrile]: the IC50 reads like this: under setting [1], no more than 100 nM; under setting [2], no more than 100 nM.

Consider `CCc1nn2cc(C)c(N3CC4(CN(C(=O)C(C)(C)O)C4)C3)cc2c1N(C)c1nc(-c2ccc(F)cc2)c(C#N)s1` [Example 98, 2-((2-ethyl-5-(6-(2-hydroxy-2-methylpropanoyl)-2,6-diazaspiro[3.3]heptan-2-yl)-6-methylpyrazolo[1,5-a]pyridin-3-yl)(methyl)amino)-4-(4-fluorophenyl)thiazole-5-carbonitrile], for which the IC50 lay in the range of 100 to 500 nM under setting [1] and 100 to 500 nM under setting [2].

Regarding `CCn1nc2nc(C)c(N3CC4(CN(C(=O)C(C)(C)O)C4)C3)cc2c1N(C)c1nc(-c2ccc(F)cc2)c(C#N)s1` [Compound 120, 2-((2-ethyl-5-(6-(2-hydroxy-2-methylpropanoyl)-2,6-diazaspiro[3.3]heptan-2-yl)-6-methyl-2H-pyrazolo[3,4-b]pyridin-3-yl)(methyl)amino)-4-(4-fluorophenyl)thiazole-5-carbonitrile], the IC50 runs as follows: under setting [1], no more than 100 nM; under setting [2], no more than 100 nM.

On to `Cc1cc(N2CCN(C3COC3)CC2)cc2c(N(C)c3nc(-c4ccc(F)cc4)c(C#N)s3)c(C3CC3)nn12` [Example 94, 2-((2-cyclopropyl-7-methyl-5-(4-(oxetan-3-yl)piperazin-1-yl)pyrazolo[1,5-a]pyridin-3-yl)(methyl)amino)-4-(4-fluorophenyl)thiazole-5-carbonitrile], for which the IC50 was 100 to 500 nM under setting [1] and 500 to 1000 nM under setting [2].

Consider `CCc1nn2c(C)cc(N3CCN(CC(=O)N4CC(CO)C4)CC3)cc2c1N(C)c1nc(-c2ccc(F)cc2)c(C#N)s1` [Example 27, 2-((2-ethyl-5-(4-(2-(3-(hydroxymethyl)azetidin-1-yl)-2-oxoethyl)piperazin-1-yl)-7-methylpyrazolo[1,5-a]pyridin-3-yl)(methyl)amino)-4-(4-fluorophenyl)thiazole-5-carbonitrile], for which the IC50 was no more than 100 nM under setting [1] and no more than 100 nM under setting [2].

In the case of `CCc1nn2c(C)cc(N3CC4(CN(C(=O)N5CC(O)C5)C4)C3)cc2c1N(C)c1nc(-c2ccc(F)cc2)c(C#N)s1` [Example 28, 2-((2-ethyl-5-(6-(3-hydroxyazetidine-1-carbonyl)-2,6-diazaspiro[3.3]heptan-2-yl)-7-methylpyrazolo[1,5-a]pyridin-3-yl)(methyl)amino)-4-(4-fluorophenyl)thiazole-5-carbonitrile], the half-inhibitory concentration (IC50) under setting [1] was no more than 100 nM and the IC50 under setting [2] was no more than 100 nM.

For the compound `CCc1nn2c(C)cc(N3CCC4(CN(C(=O)[C@H]5CCCO5)C4)C3)cc2c1N(C)c1nc(-c2ccc(F)cc2)c(C#N)s1` [Example 49, (R)-2-((2-ethyl-7-methyl-5-(2-(tetrahydrofuran-2-carbonyl)-2,6-diazaspiro[3.4]octan-6-yl)pyrazolo[1,5-a]pyridin-3-yl)(methyl)amino)-4-(4-fluorophenyl)thiazole-5-carbonitrile], the 50% inhibitory concentration (IC50) is no more than 100 nM under setting [1] and no more than 100 nM under setting [2].

Turning to `CCc1nn2ccc(N3CCC4(CCN(C(=O)N5CC(O)C5)C4)CC3)cc2c1N(C)c1nc(-c2ccc(F)cc2)c(C#N)s1` [Example 18, 2-((2-ethyl-5-(2-(3-hydroxyazetidine-1-carbonyl)-2,8-diazaspiro[4.5]decan-8-yl)pyrazolo[1,5-a]pyridin-3-yl)(methyl)amino)-4-(4-fluorophenyl)thiazole-5-carbonitrile], the concentration for half-maximal inhibition (IC50) is, setting by setting: under setting [1], no more than 100 nM; under setting [2], no more than 100 nM.
